Measured values from the supplement of paper PMC10307832.

What was measured:
Experiment in all cases: relative viability (nuclei count vs DMSO), 5 days (fraction); higher = more cells survive
JZL-184 = compound: C1CN(CCC1C(C2=CC3=C(C=C2)OCO3)(C4=CC5=C(C=C4)OCO5)O)C(=O)OC6=CC=C(C=C6)[N+](=O)[O-] [JZL-184]
Outline: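 Five library-drug doses spaced by √10 were pinned onto vehicle-anchored 1536-well plates of lung cancer cell lines that had been kept overnight at 37 °C. Cells went 5 days without medium change, then were fixed, permeabilised and Hoechst-stained together, imaged at 4× and counted by MetaXpress. Viability is the ratio of treated-well to vehicle-well nuclei, taken as a median over plates. Plates required control CV below 25% and at least one doubling.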

JZL-184 + Bortezomib = compound: C1CN(CCC1C(C2=CC3=C(C=C2)OCO3)(C4=CC5=C(C=C4)OCO5)O)C(=O)OC6=CC=C(C=C6)[N+](=O)[O-] [JZL-184] + CC(C)C[C@H](NC(=O)[C@H](Cc1ccccc1)NC(=O)c1cnccn1)B(O)O [Bortezomib] (partner 0.002 µM)
Outline: (§1)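 Cells from lung cancer lines were seeded into 1536-well plates and, one day later, dosed by pin tool. Treatments were either a single drug or a fixed dose of an anchor drug with five library-drug doses (not always all listed) in √10 steps. After 5 days, nuclei were stained in a one-step fixation (final 0.05% Triton X-100, 1% formaldehyde, 1 ug/ml Hoechst) and counted on 4× images, and relative viability is the treated-to-vehicle nuclei ratio, as the median of duplicate plates.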

JZL-184 + Navitoclax = compound: C1CN(CCC1C(C2=CC3=C(C=C2)OCO3)(C4=CC5=C(C=C4)OCO5)O)C(=O)OC6=CC=C(C=C6)[N+](=O)[O-] [JZL-184] + CC1(C)CCC(c2ccc(Cl)cc2)=C(CN2CCN(c3ccc(C(=O)NS(=O)(=O)c4ccc(N[C@H](CCN5CCOCC5)CSc5ccccc5)c(S(=O)(=O)C(F)(F)F)c4)cc3)CC2)C1 [Navitoclax] (partner 0.5 µM)
Outline: as §1

JZL-184 + Foretinib = compound: C1CN(CCC1C(C2=CC3=C(C=C2)OCO3)(C4=CC5=C(C=C4)OCO5)O)C(=O)OC6=CC=C(C=C6)[N+](=O)[O-] [JZL-184] + COc1cc2c(Oc3ccc(NC(=O)C4(C(=O)Nc5ccc(F)cc5)CC4)cc3F)ccnc2cc1OCCCN1CCOCC1 [Foretinib] (partner 0.25 µM)
Outline: as §1

JZL-184 + Lapatinib = compound: C1CN(CCC1C(C2=CC3=C(C=C2)OCO3)(C4=CC5=C(C=C4)OCO5)O)C(=O)OC6=CC=C(C=C6)[N+](=O)[O-] [JZL-184] + CS(=O)(=O)CCNCc1ccc(-c2ccc3ncnc(Nc4ccc(OCc5cccc(F)c5)c(Cl)c4)c3c2)o1 [Lapatinib] (partner 2 µM)
Outline: as §1

JZL-184 + Pictilisib = compound: C1CN(CCC1C(C2=CC3=C(C=C2)OCO3)(C4=CC5=C(C=C4)OCO5)O)C(=O)OC6=CC=C(C=C6)[N+](=O)[O-] [JZL-184] + CS(=O)(=O)N1CCN(Cc2cc3nc(-c4cccc5[nH]ncc45)nc(N4CCOCC4)c3s2)CC1 [Pictilisib] (partner 1 µM)
Outline: as §1

JZL-184 + Crizotinib = compound: C1CN(CCC1C(C2=CC3=C(C=C2)OCO3)(C4=CC5=C(C=C4)OCO5)O)C(=O)OC6=CC=C(C=C6)[N+](=O)[O-] [JZL-184] + C[C@@H](Oc1cc(-c2cnn(C3CCNCC3)c2)cnc1N)c1c(Cl)ccc(F)c1Cl [Crizotinib] (partner 1 µM)
Outline: as §1

JZL-184 + Linsitinib = compound: C1CN(CCC1C(C2=CC3=C(C=C2)OCO3)(C4=CC5=C(C=C4)OCO5)O)C(=O)OC6=CC=C(C=C6)[N+](=O)[O-] [JZL-184] + C[C@]1(O)C[C@@H](c2nc(-c3ccc4ccc(-c5ccccc5)nc4c3)c3c(N)nccn32)C1 [Linsitinib] (partner 1 µM)
Outline: as §1

JZL-184 + Alpelisib = compound: C1CN(CCC1C(C2=CC3=C(C=C2)OCO3)(C4=CC5=C(C=C4)OCO5)O)C(=O)OC6=CC=C(C=C6)[N+](=O)[O-] [JZL-184] + Cc1nc(NC(=O)N2CCC[C@H]2C(N)=O)sc1-c1ccnc(C(C)(C)C(F)(F)F)c1 [Alpelisib] (partner 2 µM)
Outline: as §1

JZL-184 + Olaparib = compound: C1CN(CCC1C(C2=CC3=C(C=C2)OCO3)(C4=CC5=C(C=C4)OCO5)O)C(=O)OC6=CC=C(C=C6)[N+](=O)[O-] [JZL-184] + O=C(c1cc(Cc2n[nH]c(=O)c3ccccc23)ccc1F)N1CCN(C(=O)C2CC2)CC1 [Olaparib] (partner 8 µM)
Outline: as §1

NCI-H1299
relative viability (JZL-184; 0.04 µM): 1.06
relative viability (JZL-184; 0.4 µM): 1
relative viability (JZL-184; 1.265 µM): 1.05
relative viability (JZL-184; 4 µM): 0.977
relative viability (JZL-184 + Bortezomib; first compound 0.04 µM): 1.04
relative viability (JZL-184 + Bortezomib; first compound 0.4 µM): 0.997
relative viability (JZL-184 + Bortezomib; first compound 1.265 µM): 1.04
relative viability (JZL-184 + Bortezomib; first compound 4 µM): 0.979
relative viability (JZL-184 + Navitoclax; first compound 0.04 µM): 1.06
relative viability (JZL-184 + Navitoclax; first compound 0.4 µM): 1.05
relative viability (JZL-184 + Navitoclax; first compound 1.265 µM): 1.06
relative viability (JZL-184 + Navitoclax; first compound 4 µM): 1.05
relative viability (JZL-184 + Foretinib; first compound 0.04 µM): 1.11
relative viability (JZL-184 + Foretinib; first compound 0.4 µM): 1.06
relative viability (JZL-184 + Foretinib; first compound 1.265 µM): 1.14
relative viability (JZL-184 + Foretinib; first compound 4 µM): 1.04
relative viability (JZL-184 + Lapatinib; first compound 0.04 µM): 0.954
relative viability (JZL-184 + Lapatinib; first compound 0.4 µM): 0.924
relative viability (JZL-184 + Lapatinib; first compound 1.265 µM): 0.969
relative viability (JZL-184 + Lapatinib; first compound 4 µM): 0.912
relative viability (JZL-184 + Pictilisib; first compound 0.04 µM): 0.922
relative viability (JZL-184 + Pictilisib; first compound 0.4 µM): 0.82
relative viability (JZL-184 + Pictilisib; first compound 1.265 µM): 0.779
relative viability (JZL-184 + Pictilisib; first compound 4 µM): 0.655
relative viability (JZL-184 + Crizotinib; first compound 0.04 µM): 0.982
relative viability (JZL-184 + Crizotinib; first compound 0.4 µM): 0.944
relative viability (JZL-184 + Crizotinib; first compound 1.265 µM): 0.915
relative viability (JZL-184 + Crizotinib; first compound 4 µM): 0.884
relative viability (JZL-184 + Linsitinib; first compound 0.04 µM): 1.16
relative viability (JZL-184 + Linsitinib; first compound 0.4 µM): 1.01
relative viability (JZL-184 + Linsitinib; first compound 1.265 µM): 0.95
relative viability (JZL-184 + Linsitinib; first compound 4 µM): 0.974
relative viability (JZL-184 + Alpelisib; first compound 0.04 µM): 1.14
relative viability (JZL-184 + Alpelisib; first compound 0.4 µM): 1.01
relative viability (JZL-184 + Alpelisib; first compound 1.265 µM): 1.08
relative viability (JZL-184 + Alpelisib; first compound 4 µM): 1.04
relative viability (JZL-184 + Olaparib; first compound 0.04 µM): 1.01
relative viability (JZL-184 + Olaparib; first compound 0.4 µM): 0.937
relative viability (JZL-184 + Olaparib; first compound 1.265 µM): 0.936
relative viability (JZL-184 + Olaparib; first compound 4 µM): 0.911
